How the values were obtained:
[1] = system: MT4; assay: (§1) Tested for cytopathic effect caused by KK-1AIDS strain in MT-4 cells in the presence of human serum; type: functional, cell-based
[2] = system: MT4; assay: Tested against HIV-1 induced cytopathic effect in MT-4 cells on KK-1AIDS (strain clinically isolated from an AIDS patient); type: functional, Homo sapiens
[3] = system: MOLT-4; assay: Tested for the suppressive effect on giant cell formation in MOLT-4 and MOLT-4/HIV LAV-1 cells (value obtained in the presence of 10% FCS); type: functional, cell-based; conditions: Homo sapiens
[4] = system: MT4; assay: Tested for appearance of MT-4 cell toxicity after 5 days of incubation; type: functional; conditions: Homo sapiens, MT4, 120 h; read-out: TD50 (the source's name)
[5] = system: MT4; assay: Tested against HIV-1 induced cytopathic effect in MT-4 cells on LAV-1 strain; type: functional, Homo sapiens
[6] = system: MT4; assay: (§2) Tested for cytopathic effect caused by LAV-1 strain in MT-4 cells in the presence of human serum; type: functional, cell-based
[7] = system: Human immunodeficiency virus 1; assay: Tested against HIV-1 replication of KK-1AIDS strain in peripheral blood mononuclear cells (value obtained in the presence of 20% FCS); type: functional, organism-based
[8] = Tested for anticoagulation effect by Zuchker's activated partial thromboplastin time (APTT) method; type: functional
[9] = as §1; type: functional, cell-based; conditions: MT4, Serum
[10] = as §2; type: functional, cell-based; conditions: MT4, Serum

IC50 [3] [µg/mL] | IC50 [7] [µg/mL] | IC50 [9] [µg/mL] | IC50 [10] [µg/mL] | SMILES | IC50 [1] [µg/mL] | IC100 [2] [µg/mL] | CC50 [4] [µg/mL] | IC100 [5] [µg/mL] | IC50 [6] [µg/mL] | APTT [8] [µg/mL]
2 | 6.5 | – | – | O=S(=O)([O-])OCC1O[C@H]2O[C@@H]3C(CSCc4ccccc4)O[C@H](O[C@@H]4C(COS(=O)(=O)[O-])O[C@H](O[C@@H]5C(COS(=O)(=O)[O-])O[C@@H](O[C@@H]6C(CSCc7ccccc7)O[C@H](O[C@@H]7C(COS(=O)(=O)[O-])O[C@H](O[C@@H]8C(CSCc9ccccc9)O[C@H](O[C@H]1C(O)C2OS(=O)(=O)[O-])C(OS(=O)(=O)[O-])C8OS(=O)(=O)[O-])C(OS(=O)(=O)[O-])C7OS(=O)(=O)[O-])C(OS(=O)(=O)[O-])C6OS(=O)(=O)[O-])C(O)C5OS(=O)(=O)[O-])C(OS(=O)(=O)[O-])C4OS(=O)(=O)[O-])C(OS(=O)(=O)[O-])C3OS(=O)(=O)[O-].[K+].[K+].[K+].[K+].[K+].[K+].[K+].[K+].[K+].[K+].[K+].[K+].[K+].[K+].[K+].[K+] (some centres undefined) | 11 | 1.95 | > 1000 | 0.98 | 4.5 | 7.1
– | – | – | – | O=S(=O)([O-])OCC1O[C@H]2O[C@@H]3C(COS(=O)(=O)[O-])O[C@H](O[C@@H]4C(COS(=O)(=O)[O-])O[C@H](O[C@@H]5C(COS(=O)(=O)[O-])O[C@H](O[C@@H]6C(COS(=O)(=O)[O-])O[C@@H](O[C@@H]7C(COS(=O)(=O)[O-])O[C@H](O[C@@H]8C(COS(=O)(=O)[O-])O[C@H](O[C@H]1C(OS(=O)(=O)[O-])C2O)C(OCc1ccccc1)C8OS(=O)(=O)[O-])C(O)C7OS(=O)(=O)[O-])C(OCc1ccccc1)C6OS(=O)(=O)[O-])C(OS(=O)(=O)[O-])C5OS(=O)(=O)[O-])C(OCc1ccccc1)C4OS(=O)(=O)[O-])C(OS(=O)(=O)[O-])C3OS(=O)(=O)[O-].[Na+].[Na+].[Na+].[Na+].[Na+].[Na+].[Na+].[Na+].[Na+].[Na+].[Na+].[Na+].[Na+].[Na+].[Na+].[Na+] (some centres undefined) | – | 3.9 | > 1000 | 1.95 | – | 4
0.46 | 3.6 | 5.8 | 0.87 | O=S(=O)([O-])OC[C@@H]1O[C@@H]2O[C@H]3[C@H](OS(=O)(=O)[O-])[C@H](OCc4ccccc4)[C@@H](O[C@H]4[C@H](OS(=O)(=O)[O-])[C@H](OCc5ccccc5)[C@@H](O[C@H]5[C@H](OS(=O)(=O)[O-])[C@H](OCc6ccccc6)[C@@H](O[C@H]6[C@H](OS(=O)(=O)[O-])[C@H](OCc7ccccc7)[C@@H](O[C@H]7[C@H](OS(=O)(=O)[O-])[C@H](OCc8ccccc8)C(O[C@H]8[C@H](OS(=O)(=O)[O-])[C@H](OCc9ccccc9)C(O[C@H]1[C@H](OS(=O)(=O)[O-])[C@@H]2OCc1ccccc1)O[C@H]8COS(=O)(=O)[O-])O[C@H]7COS(=O)(=O)[O-])O[C@H]6COS(=O)(=O)[O-])O[C@H]5COS(=O)(=O)[O-])O[C@H]4COS(=O)(=O)[O-])O[C@H]3COS(=O)(=O)[O-].[Na+].[Na+].[Na+].[Na+].[Na+].[Na+].[Na+].[Na+].[Na+].[Na+].[Na+].[Na+].[Na+].[Na+] | – | 0.98 | 1000 | 0.98 | – | 14.8
– | – | – | – | O=S(=O)([O-])OC[C@@H]1O[C@@H]2O[C@H]3[C@H](OS(=O)(=O)[O-])[C@H](O)[C@@H](O[C@H]4[C@H](OS(=O)(=O)[O-])[C@H](O)[C@@H](O[C@H]5[C@H](OS(=O)(=O)[O-])[C@H](O)[C@@H](O[C@H]6[C@H](OS(=O)(=O)[O-])[C@H](O)[C@@H](O[C@H]7[C@H](OS(=O)(=O)[O-])[C@H](O)C(O[C@H]8[C@H](OS(=O)(=O)[O-])[C@H](O)C(O[C@H]1[C@H](OS(=O)(=O)[O-])[C@@H]2O)O[C@H]8COS(=O)(=O)[O-])O[C@H]7COS(=O)(=O)[O-])O[C@H]6COS(=O)(=O)[O-])O[C@H]5COS(=O)(=O)[O-])O[C@H]4COS(=O)(=O)[O-])O[C@H]3COS(=O)(=O)[O-].[K+].[K+].[K+].[K+].[K+].[K+].[K+].[K+].[K+].[K+].[K+].[K+].[K+].[K+] | – | 125 | > 1000 | 31.26 | – | 2.8

Source: ChEMBL document CHEMBL1126710, “A new candidate for an anti-HIV-1 agent: modified cyclodextrin sulfate (mCDS71)” (J Med Chem, 1993)
